Test systems include CCRF-CEM leukemia; COLO 205 colon; HL-60(TB) leukemia; HOP-62 NSCLC; HT29 colon; K-562 leukemia; KM12 colon; MALME-3M melanoma; MCF7 breast; MOLT-4 leukemia; NCI-H460 lung; NCI/ADR-RES ovarian; OVCAR-4 ovarian; OVCAR-5 ovarian; RPMI-8226 leukemia; SF-295 CNS; SK-MEL-5 melanoma; SN12C renal; SNB-19 CNS; UO-31 renal.
Common to all, as to experiment: NCI anticancer screen, dose series, 48 h

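Method: 48-hour compound exposure of cells in 96-well plates, five concentrations, linear interpolation of endpoints. TGI is the concentration that stops growth completely.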

In the case of `Cc1[nH]c(=O)[nH]c(=O)c1/C=C/C(=O)O` (tested in a mixture with another compound), the TGI with CCRF-CEM leukemia, in the assay with COLO 205 colon, with HL-60(TB) leukemia, in the assay with HOP-62 NSCLC, in the assay on HT29 colon and in the assay on K-562 leukemia was over 625 µM each time. Further, the TGI in the assay on KM12 colon, with MALME-3M melanoma, with MCF7 breast, with MOLT-4 leukemia, with NCI-H460 lung and in the assay with NCI/ADR-RES ovarian was over 625 µM in each case. Moreover, the TGI in the assay on OVCAR-4 ovarian, with OVCAR-5 ovarian, with RPMI-8226 leukemia, in the assay with SF-295 CNS, in the assay with SK-MEL-5 melanoma and with SN12C renal was over 625 µM each time. Moreover, the TGI with SNB-19 CNS and in the assay on UO-31 renal was over 625 µM in each case.
In the case of `O=c1[nH]nc(NCc2ccccc2)c2nnn(Cc3ccccc3)c12`, the TGI in the assay with CCRF-CEM leukemia, in the assay with COLO 205 colon, in the assay on HL-60(TB) leukemia, in the assay with HOP-62 NSCLC, with HT29 colon and in the assay with K-562 leukemia was over 100 µM each time. The TGI with KM12 colon, with MALME-3M melanoma, in the assay with MCF7 breast, in the assay on MOLT-4 leukemia, with NCI-H460 lung and with NCI/ADR-RES ovarian was over 100 µM each time. The TGI with OVCAR-4 ovarian, in the assay on OVCAR-5 ovarian, with RPMI-8226 leukemia, in the assay with SF-295 CNS, in the assay on SK-MEL-5 melanoma and in the assay on SN12C renal was over 100 µM each time. Further, the TGI in the assay with SNB-19 CNS and with UO-31 renal was over 100 µM each time.
Consider `COc1nc2cccc(C(O)c3ccccc3)c2nc1-c1ccccc1` (stereo not given), for which the TGI with CCRF-CEM leukemia came to 10.8 µM; in the assay with COLO 205 colon, 16.3 µM; in the assay with HL-60(TB) leukemia, 18 µM; in the assay on HOP-62 NSCLC, 19.1 µM; in the assay on HT29 colon, 72.4 µM; in the assay with K-562 leukemia, 19.7 µM. The TGI in the assay on KM12 colon is over 100 µM; with MALME-3M melanoma it was over 100 µM; in the assay with MCF7 breast it was 32 µM; with MOLT-4 leukemia it was 34.7 µM; in the assay with NCI-H460 lung, 24.8 µM; with NCI/ADR-RES ovarian, 15.9 µM. Also, the TGI is over 100 µM in the assay with OVCAR-4 ovarian; 54.8 µM with OVCAR-5 ovarian; 10.8 µM in the assay on RPMI-8226 leukemia; 17 µM with SF-295 CNS; 13.1 µM in the assay on SK-MEL-5 melanoma; 25.6 µM in the assay with SN12C renal. Also, the figures for the TGI in the assay with SNB-19 CNS and in the assay on UO-31 renal were 51.1 µM and 68.7 µM, respectively.
Take `CSCC[C@@H]1C(=O)N(C)[C@H](C(C)(C)C)N1C(=O)c1ccccc1`: the TGI in the assay on CCRF-CEM leukemia, in the assay with COLO 205 colon, with HL-60(TB) leukemia, in the assay on HOP-62 NSCLC, in the assay on HT29 colon and in the assay with K-562 leukemia was over 100 µM in each case. For the same compound, the TGI in the assay with KM12 colon, with MALME-3M melanoma, in the assay with MCF7 breast, in the assay on MOLT-4 leukemia, in the assay on NCI-H460 lung and in the assay with NCI/ADR-RES ovarian was over 100 µM each time. For the same compound, the TGI in the assay with OVCAR-4 ovarian, in the assay with OVCAR-5 ovarian, in the assay with RPMI-8226 leukemia, in the assay on SF-295 CNS, in the assay on SK-MEL-5 melanoma and in the assay with SN12C renal was over 100 µM in each case. Further, the TGI in the assay on SNB-19 CNS and in the assay on UO-31 renal was over 100 µM in each case.
On to `OCC1COc2cc(Cl)c(Cl)cc2O1` (stereo not given), for which the TGI with CCRF-CEM leukemia, in the assay on COLO 205 colon, with HL-60(TB) leukemia, in the assay with HOP-62 NSCLC, with HT29 colon and in the assay on K-562 leukemia was over 10 µM each time. Moreover, the TGI in the assay with KM12 colon, with MALME-3M melanoma, with MCF7 breast, with MOLT-4 leukemia, in the assay with NCI-H460 lung and in the assay on NCI/ADR-RES ovarian was over 10 µM each time. Further, the TGI with OVCAR-4 ovarian, with OVCAR-5 ovarian, in the assay on RPMI-8226 leukemia, in the assay with SF-295 CNS, with SK-MEL-5 melanoma and with SN12C renal was over 10 µM throughout. Moreover, the TGI in the assay with SNB-19 CNS and in the assay with UO-31 renal was over 10 µM each time.
With `COc1cc(C2c3cc4c(cc3[C@@H](Nc3cccc(CO)c3)C3COC(=O)[C@H]23)OCO4)cc(OC)c1O` (stereo not given in full), the TGI was found to be 0.732 µM in the assay on CCRF-CEM leukemia; 3.72 µM in the assay with COLO 205 colon; 0.343 µM with HL-60(TB) leukemia; 0.556 µM in the assay with HOP-62 NSCLC; 5.15 µM with HT29 colon; 5.87 µM in the assay with K-562 leukemia. The TGI was determined as 6.67 µM in the assay on KM12 colon; 11.4 µM in the assay with MALME-3M melanoma; 26.3 µM with MCF7 breast; 0.185 µM in the assay with MOLT-4 leukemia; 1.75 µM with NCI-H460 lung; 59.2 µM in the assay on NCI/ADR-RES ovarian. In addition, the TGI in the assay with OVCAR-4 ovarian was found to be 30.4 µM; in the assay on OVCAR-5 ovarian, 11.5 µM; in the assay on RPMI-8226 leukemia it was 2.12 µM; with SF-295 CNS it was 5.05 µM; in the assay on SK-MEL-5 melanoma, 2.28 µM; in the assay with SN12C renal, 6.11 µM. In addition, the TGI with SNB-19 CNS was 15.7 µM; with UO-31 renal, 10.4 µM.
